Data taken from patent publication US8017612B2, “Piperazine compound and use thereof as a HCV polymerase inhibitor” (priority 2006, dated 2011).
pIC50: −log10 of the molar value. Counter-ions that a name gives are not always drawn.

Experiments:
[1] = biological target: T1, HCV polymerase (NS5B) type 1b (Hepatitis C virus genotype 1b, UniProt P26663); test: Assay of enzyme (HCV polymerase) inhibitory activity, type 1b enzyme; type: biochemical, HCV BK strain (type 1b); details: HCV polymerase inhibitory activity (IC50), 1b, type 1b enzyme 0.5 μg/ml, 25° C., 60 min
T1 construct: a region encoding NS5B (J Virol 1991 March, 65(3), 1105-13, 544 amino acids after deletion of 47 amino acids on the C-terminal); 6xHis (C); made in house; host or cells: Escherichia coli
Outline: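 NS5B from HCV BK strain (type 1b), C-terminal 47 aa deleted, C-terminal His6-tagged, E. coli-expressed, 0.5 μg/ml, with ~450 nt substrate RNA carrying the 3′ UTR (polyU, 3′X) at 5 μg/ml. Incubation 60 min at 25 °C with 50 μM ATP/GTP/CTP, 2 μM UTP plus [3H]UTP, pH 7.5 Tris.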

[2] = biological target: T2, HCV polymerase (NS5B) type 1a (Hepatitis C virus genotype 1a, UniProt P26664); test: Assay of enzyme (HCV polymerase) inhibitory activity, type 1a enzyme; type: biochemical, HCV type 1a (cloned from the blood of patients); details: HCV polymerase inhibitory activity (IC50), 1a, type 1a enzyme 1.5 μg/ml, 25° C., 60 min
T2 construct: made in house; host or cells: Escherichia coli (by the 'similar method' of the 1b enzyme)
Outline: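 Patient-derived type 1a NS5B (C-terminal 47-aa deletion, His-tagged, E. coli-expressed) at 1.5 μg/ml was reacted with 5 μg/ml 3′UTR-containing substrate RNA, 50 μM ATP/GTP/CTP, 2 μM UTP plus [3H]UTP, pH 7.5, 25° C for 60 min. TCA-precipitated RNA radioactivity was counted; IC50 from ± compound.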

Question: How did the pIC50 [1] turn out when `Cc1nc(N2CCN(S(=O)(=O)c3ccc(OC(F)(F)F)cc3)[C@@H](C(=O)NCCc3ccccc3)C2)sc1C(=O)O` [Example 418, 4-methyl-2-[(R)-3-phenethylcarbamoyl-4-(4-trifluoromethoxy-benzenesulfonyl)-piperazin-1-yl]-thiazole-5-carboxylic acid] was run?
Answer: < 6.00

Question: And the pIC50 [2]?
Answer: < 6.00

Question: What does the source list for `CC(=O)N1CCN(S(=O)(=O)c2ccc(Br)cc2F)[C@@H](C(=O)NCc2ccc(C(C)C)cc2)C1` [Example 419, (R)-4-acetyl-1-(4-bromo-2-fluoro-benzenesulfonyl)-piperazine-2-carboxylic acid 4-isopropyl-benzylamide]?
Answer: pIC50 [1]: 6.00 to 7.00; pIC50 [2]: 6.00 to 7.00

Question: What does the source list for `COC(=O)c1nc(Cl)c(N2CCN(S(=O)(=O)c3ccc(C(F)(F)F)cc3)[C@@H](C(=O)NCc3ccc(C(C)C)cc3)C2)nc1N` [Example 420, (R)-6′-amino-3′-chloro-3-(4-isopropyl-benzylcarbamoyl)-4-(4-trifluoromethyl-benzenesulfonyl)-3,4,5,6-tetrahydro-2H-[1,2′]bipyrazinyl-5′-carboxylic acid methyl ester]?
Answer: pIC50 [1]: < 6.00; pIC50 [2]: < 6.00

Question: How did the pIC50 [1] turn out when `COC(=O)c1nc(Cl)c(N2CCN(S(=O)(=O)c3ccc(C(F)(F)F)cc3)[C@@H](C(=O)NCc3ccc(C(C)C)cc3)C2)nc1Br` [Example 421, (R)-6′-bromo-3′-chloro-3-(4-isopropyl-benzylcarbamoyl)-4-(4-trifluoromethyl-benzenesulfonyl)-3,4,5,6-tetrahydro-2H-[1,2′]bipyrazinyl-5′-carboxylic acid methyl ester] was run?
Answer: < 6.00

Question: And the pIC50 [2]?
Answer: < 6.00

Question: With `Cc1nc(N2CCN(S(=O)(=O)c3ccc(C(F)(F)F)cc3)[C@@H](C(=O)NCc3ccc(C(C)C)cc3)C2)c(C)nc1C(=O)O` [Example 422, (R)-3-(4-isopropyl-benzylcarbamoyl)-3′,6′-dimethyl-4-(4-trifluoromethyl-benzenesulfonyl)-3,4,5,6-tetrahydro-2H-[1,2′]bipyrazinyl-5′-carboxylic acid] as the compound, how does the pIC50 [1] read?
Answer: < 6.00

Question: And the pIC50 [2]?
Answer: < 6.00

Question: How did the pIC50 [1] turn out when `COC(=O)c1ncc(N2CCN(S(=O)(=O)c3ccc(C(F)(F)F)cc3)[C@@H](C(=O)NCc3ccc(C(C)C)cc3)C2)nc1N` [Example 423, (R)-6′-amino-3-(4-isopropyl-benzylcarbamoyl)-4-(4-trifluoromethyl-benzenesulfonyl)-3,4,5,6-tetrahydro-2H-[1,2′]bipyrazinyl-5′-carboxylic acid methyl ester] was run?
Answer: > 7.00

Question: And the pIC50 [2]?
Answer: > 7.00

Question: `CCN(C)c1ccc(CNC(=O)[C@H]2CN(c3nc(C)c(C(=O)O)s3)CCN2S(=O)(=O)c2ccc(OC(F)(F)F)cc2)cc1` [Example 424, 2-[(R)-3-[4-(ethyl-methyl-amino)-benzylcarbamoyl]-4-(4-trifluoromethoxy-benzenesulfonyl)-piperazin-1-yl]-4-methyl-thiazole-5-carboxylic acid] was tested. Which pIC50 [1] did it give?
Answer: > 7.00

Question: What about the pIC50 [2] of the same compound?
Answer: > 7.00

Question: With `CCN(CC)c1ccc(CNC(=O)[C@H]2CN(c3nc(C)c(C(=O)O)s3)CCN2S(=O)(=O)c2ccc(OC(F)(F)F)cc2)cc1` [Example 425, 2-[(R)-3-(4-diethylamino-benzylcarbamoyl)-4-(4-trifluoromethoxy-benzenesulfonyl)-piperazin-1-yl]-4-methyl-thiazole-5-carboxylic acid] as the compound, how does the pIC50 [1] read?
Answer: > 7.00

Question: And the pIC50 [2]?
Answer: > 7.00

Question: With `CC(C)c1ccc(CNC(=O)[C@H]2CN(c3cc(C(=O)O)[nH]n3)CCN2S(=O)(=O)c2ccc(C(F)(F)F)cc2)cc1` [Example 426, 5-[(R)-3-(4-isopropyl-benzylcarbamoyl)-4-(4-trifluoromethyl-benzenesulfonyl)-piperazin-1-yl]-2H-pyrazole-3-carboxylic acid] as the compound, how does the pIC50 [1] read?
Answer: 6.00 to 7.00

Question: What about the pIC50 [2] of the same compound?
Answer: < 6.00

Question: With `CC(C)c1ccc(CNC(=O)[C@H]2CN(c3n[nH]c(C(=O)O)c3Cl)CCN2S(=O)(=O)c2ccc(C(F)(F)F)cc2)cc1` [Example 427, 4-chloro-5-[(R)-3-(4-isopropyl-benzylcarbamoyl)-4-(4-trifluoromethyl-benzenesulfonyl)-piperazin-1-yl]-2H-pyrazole-3-carboxylic acid] as the compound, how does the pIC50 [1] read?
Answer: < 6.00

Question: And the pIC50 [2]?
Answer: < 6.00

Question: `CC(=O)N1CCN(S(=O)(=O)c2ccc(CC3CC3)cc2)[C@@H](C(=O)NCc2ccc(C(C)C)cc2)C1` [Example 428, (R)-4-acetyl-1-(4-cyclopropylmethyl-benzenesulfonyl)-piperazine-2-carboxylic acid 4-isopropyl-benzylamide] was tested. Which pIC50 [1] did it give?
Answer: > 7.00

Question: What about the pIC50 [2] of the same compound?
Answer: > 7.00

Question: What does the source list for `CCCc1ccc(S(=O)(=O)N2CCN(C(C)=O)C[C@@H]2C(=O)NCc2ccc(C(C)C)cc2)c(F)c1` [Example 429, (R)-4-acetyl-1-(2-fluoro-4-propyl-benzenesulfonyl)-piperazine-2-carboxylic acid 4-isopropyl-benzylamide]?
Answer: pIC50 [1]: > 7.00; pIC50 [2]: > 7.00

Question: What does the source list for `CC(=O)N1CCN(S(=O)(=O)c2ccc(Br)cc2)[C@@H](C(=O)NCc2ccc(C(C)C)cc2)C1` [Example 430, (R)-4-acetyl-1-(4-bromo-benzenesulfonyl)-piperazine-2-carboxylic acid 4-isopropyl-benzylamide]?
Answer: pIC50 [1]: 6.00 to 7.00; pIC50 [2]: 6.00 to 7.00

Question: How did the pIC50 [1] turn out when `COC(=O)c1cnc(N2CCN(S(=O)(=O)c3ccc(C(F)(F)F)cc3)[C@@H](C(=O)NCc3ccc(C(C)C)cc3)C2)c(C)n1` [Example 431, (R)-3-(4-isopropyl-benzylcarbamoyl)-3′-methyl-4-(4-trifluoromethyl-benzenesulfonyl)-3,4,5,6-tetrahydro-2H-[1,2′]bipyrazinyl-5′-carboxylic acid methyl ester] was run?
Answer: 6.00 to 7.00

Question: And the pIC50 [2]?
Answer: 6.00 to 7.00

Question: Which results are given for `CCCc1ccc(CNC(=O)[C@H]2CN(c3cnc(C(=O)O)cn3)CCN2S(=O)(=O)c2ccc(OC(F)(F)F)cc2)c(C)c1` [Example 432, (R)-3-(2-methyl-4-propyl-benzylcarbamoyl)-4-(4-trifluoromethoxy-benzenesulfonyl)-3,4,5,6-tetrahydro-2H-[1,2′]bipyrazinyl-5′-carboxylic acid]?
Answer: pIC50 [1]: > 7.00; pIC50 [2]: > 7.00

Question: How did the pIC50 [1] turn out when `CC(=O)N1CCN(S(=O)(=O)c2ccc(C(C)C)cc2)[C@@H](C(=O)NCCc2c[nH]cn2)C1` [Example 433, (R)-4-acetyl-1-(4-isopropyl-benzenesulfonyl)-piperazine-2-carboxylic acid [2-(1H-imidazol-4-yl)-ethyl]-amide hydrochloride] was run?
Answer: < 6.00

Question: What about the pIC50 [2] of the same compound?
Answer: < 6.00

Question: Which results are given for `CCCc1ccc(S(=O)(=O)N2CCN(c3nc(C(=O)O)c(C)s3)C[C@@H]2C(=O)NCc2ccc(C(C)C)cc2)cc1` [Example 434, 2-[(R)-3-(4-isopropyl-benzylcarbamoyl)-4-(4-propyl-benzenesulfonyl)-piperazin-1-yl]-5-methyl-thiazole-4-carboxylic acid]?
Answer: pIC50 [1]: > 7.00; pIC50 [2]: > 7.00

Question: How did the pIC50 [1] turn out when `CCCc1ccc(CNC(=O)[C@H]2CN(c3cnc(C(=O)O)cn3)CCN2S(=O)(=O)c2ccc3c(c2)CCCCC3)cc1` [Example 435, (R)-3-(4-propyl-benzylcarbamoyl)-4-(6,7,8,9-tetrahydro-5H-benzenecycloheptene-2-sulfonyl)-3,4,5,6-tetrahydro-2H-[1,2′]bipyrazinyl-5′-carboxylic acid] was run?
Answer: > 7.00

Question: What about the pIC50 [2] of the same compound?
Answer: > 7.00

Question: How did the pIC50 [1] turn out when `CCCc1ccc(CNC(=O)[C@H]2CN(C(=O)Nc3ccncc3)CCN2S(=O)(=O)c2ccc(OC(F)(F)F)cc2)cc1` [Example 436, (R)-4-(4-trifluoromethoxy-benzenesulfonyl)-piperazine-1,3-dicarboxylic acid 3-(4-propyl-benzylamide) 1-pyridin-4-ylamide] was run?
Answer: > 7.00

Question: What about the pIC50 [2] of the same compound?
Answer: > 7.00

Question: How did the pIC50 [1] turn out when `CCCc1ccc(CNC(=O)[C@H]2CN(C(=O)Nc3nncs3)CCN2S(=O)(=O)c2ccc(OC(F)(F)F)cc2)cc1` [Example 437, (R)-4-(4-trifluoromethoxy-benzenesulfonyl)-piperazine-1,3-dicarboxylic acid 3-(4-propyl-benzylamide) 1-[1,3,4]thiadiazol-2-ylamide] was run?
Answer: > 7.00

Question: What about the pIC50 [2] of the same compound?
Answer: > 7.00

Question: `CCCc1ccc(CNC(=O)[C@H]2CN(c3cnc(C(=O)O)cn3)CCN2S(=O)(=O)c2ccc(CCC)s2)cc1` [Example 438, (R)-3-(4-propyl-benzylcarbamoyl)-4-(5-propyl-thiophene-2-sulfonyl)-3,4,5,6-tetrahydro-2H-[1,2′]bipyrazinyl-5′-carboxylic acid] was tested. Which pIC50 [1] did it give?
Answer: > 7.00

Question: And the pIC50 [2]?
Answer: > 7.00

Question: How did the pIC50 [1] turn out when `CC(C)c1ccc(CNC(=O)[C@H]2CN(c3cc(C(=O)O)nn3C)CCN2S(=O)(=O)c2ccc(C(F)(F)F)cc2)cc1` [Example 439, 5-[(R)-3-(4-isopropyl-benzylcarbamoyl)-4-(4-trifluoromethyl-benzenesulfonyl)-piperazin-1-yl]-1-methyl-1H-pyrazole-3-carboxylic acid] was run?
Answer: 6.00 to 7.00

Question: And the pIC50 [2]?
Answer: < 6.00

Question: Which results are given for `CCCc1ccc(CNC(=O)[C@H]2CN(c3cnc(C(=O)O)cn3)CCN2S(=O)(=O)c2ccc(CCC)cc2)cc1` [Example 440, (R)-4-(4-propyl-benzenesulfonyl)-3-(4-propyl-benzylcarbamoyl)-3,4,5,6-tetrahydro-2H-[1,2′]bipyrazinyl-5′-carboxylic acid]?
Answer: pIC50 [1]: > 7.00; pIC50 [2]: > 7.00
